# Source: publication PMC9013686, “Inter-individual variation in chlorpyrifos toxicokinetics characterized by physiologically based kinetic (PBK) and Monte Carlo simulation comparing human liver microsome and Supersome™ cytochromes P450 (CYP)-specific kinetic data as model input” (Archives of Toxicology, 2022)
# Where “and” joins values, the source holds several entries; their conditions need not be identical. Equal values may be shown once. Marks after values point to notes of the source that are not given here.
# Legend:
# [1] = PBK modelling with Monte Carlo simulation (Supersome-based and HLM-based); parameters: species or system human; settings: oral 0.5 mg/kg bw CPF, in vivo data Nolan et al. [1984]
# From the text: Compared to the PBK model of Zhao et al. ([2019]), only the fractional absorption was changed to 0.462, which is the mean value of reported fa values from Timchalk et al. ([2002]) (fa = 0.224) and Nolan et al. ([1984]) (fa = 0.7), while for the other model parameters (non-kinetic), the mean values as reported in Zhao et al. ([2019]) were used.
# Compared to the model of Zhao et al. ([2019]), in the Supersome™-based PBK model approach, the kinetic parameters of pathway 1 and pathway 2 were replaced from HLM-derived values to Supersome™-derived values, while the kinetic parameters of pathway 3 were kept the same. For pathway 4, instead of using the reported kinetic parameters from Mosquin et al. ([2009]), the calculated mean values of kinetic parameters obtained based on 25 individual HP samples derived by the present study were used. […]
# The performance of the Supersome™-based PBK model and the HLM-based PBK model (biphasic) were evaluated by comparing their predicted time-dependent TCPy and CPF blood concentrations including the maximum total (bound and unbound) blood concentration (Cmax) or time-dependent blood concentration, and the cumulative time-dependent urinary TCPy excretion with corresponding available in vivo data (Drevenkar et al. [1993]; Nolan et al. [1984]; Timchalk et al. [2002]) upon similar dosing regimens or estimated dose level. […]
# PON1 in plasma = experiment: PON1-catalyzed detoxification of CPO to TCPy in individual human plasma (pathway 4); type: in vitro ADME; settings: for CE / Scaled CE / Vmax / Vmax (app) / Scaled Vmax: CPO to TCPy; for Scaled Vmax: Eq 7
# Method: After 1 min preincubation in a shaking 37 °C water bath, 1 µl of individual HP was added into the incubation system. Control incubations were performed by replacing plasma with the same amount of 50 mM Tris–HCl (pH 7.4). The total volume of the incubation mixtures was 200 µl. The incubation lasted for 1.5 min at 37 °C and was terminated by addition of 200 µl ice cold ACN and subsquently put on ice. Samples were subsequently centrifuged at 16,000 g (4 ℃) for 5 min and analyzed by UPLC-PDA. […]
# In pathway 4, the in vivo VmaxHP (µmol/h) was extrapolated from its corresponding mean of the apparent VmaxHP(app) (nmol/min/ml plasma) of 25 individuals HP using Eq. 7:7 VmaxHP=VmaxHP(app)×60×1000×VB×0.55/1000,
# [2] = tested on: paraoxonase1 (PON1) in liver; settings: Pathway 3 (CPO to TCPy in liver); pooled HLMs; ref Zhao et al. ([2019]); cited from earlier work
structure (smiles),measurement,setting,value
"Oc1nc(Cl)c(Cl)cc1Cl [TCPy, 3,5,6-trichloro-2-pyridinol]",predicted blood Cmax versus mean in vivo Cmax,[1]; both PBK models,2.2 fold
same,predicted urinary excretion at 120 h versus in vivo value,[1],0.8 fold
"CCOP(=O)(OCC)Oc1nc(Cl)c(Cl)cc1Cl [CPO, chlorpyrifos-oxon]",difference between the highest and the lowest CE,PON1 in plasma; CPO detoxification in plasma of 25 individuals,around 2.6 fold
same,CE,PON1 in plasma; plasma individual 1 (64),4.1 ml/min/ml plasma
same,Scaled CE,PON1 in plasma; plasma individual 1 (64),750.1 L/h
same,Vmax,PON1 in plasma; plasma individual 1 (64),1596 nmol/min/ml plasma
same,Vmax (app),PON1 in plasma; plasma individual 1 (64),21.78 nmol/min/mg plasma protein
same,Scaled Vmax,PON1 in plasma; plasma individual 1 (64),291247 µmol/h
same,CE,PON1 in plasma; plasma individual 2 (65),4.0 ml/min/ml plasma
same,Scaled CE,PON1 in plasma; plasma individual 2 (65),724.7 L/h
same,Vmax,PON1 in plasma; plasma individual 2 (65),1233 nmol/min/ml plasma
same,Vmax (app),PON1 in plasma; plasma individual 2 (65),17.32 nmol/min/mg plasma protein
same,Scaled Vmax,PON1 in plasma; plasma individual 2 (65),224952 µmol/h
same,CE,PON1 in plasma; plasma individual 3 (56),6.4 ml/min/ml plasma
same,Scaled CE,PON1 in plasma; plasma individual 3 (56),1172.4 L/h
same,Vmax,PON1 in plasma; plasma individual 3 (56),2439 nmol/min/ml plasma
same,Vmax (app),PON1 in plasma; plasma individual 3 (56),32.15 nmol/min/mg plasma protein
same,Scaled Vmax,PON1 in plasma; plasma individual 3 (56),445176 µmol/h
same,CE,PON1 in plasma; plasma individual 4 (52),5.0 ml/min/ml plasma
same,Scaled CE,PON1 in plasma; plasma individual 4 (52),915.9 L/h
same,Vmax,PON1 in plasma; plasma individual 4 (52),1591 nmol/min/ml plasma
same,Vmax (app),PON1 in plasma; plasma individual 4 (52),22.39 nmol/min/mg plasma protein
same,Scaled Vmax,PON1 in plasma; plasma individual 4 (52),290427 µmol/h
same,CE,PON1 in plasma; plasma individual 5 (51),5.2 ml/min/ml plasma
same,Scaled CE,PON1 in plasma; plasma individual 5 (51),939.9 L/h
same,Vmax,PON1 in plasma; plasma individual 5 (51),3284 nmol/min/ml plasma
same,Vmax (app),PON1 in plasma; plasma individual 5 (51),45.36 nmol/min/mg plasma protein
same,Scaled Vmax,PON1 in plasma; plasma individual 5 (51),599306 µmol/h
same,CE,PON1 in plasma; plasma individual 6 (57),5.7 ml/min/ml plasma
same,Scaled CE,PON1 in plasma; plasma individual 6 (57),1047.5 L/h
same,Vmax,PON1 in plasma; plasma individual 6 (57),1878 nmol/min/ml plasma
same,Vmax (app),PON1 in plasma; plasma individual 6 (57),23.22 nmol/min/mg plasma protein
same,Scaled Vmax,PON1 in plasma; plasma individual 6 (57),342626 µmol/h
same,CE,PON1 in plasma; plasma individual 7,7.9 ml/min/ml plasma
same,Scaled CE,PON1 in plasma; plasma individual 7,1441.5 L/h
same,Vmax,PON1 in plasma; plasma individual 7,1203 nmol/min/ml plasma
same,Vmax (app),PON1 in plasma; plasma individual 7,14.99 nmol/min/mg plasma protein
same,Scaled Vmax,PON1 in plasma; plasma individual 7,219543 µmol/h
same,CE,PON1 in plasma; plasma individual 8,7.3 ml/min/ml plasma
same,Scaled CE,PON1 in plasma; plasma individual 8,1332.3 L/h
same,Vmax,PON1 in plasma; plasma individual 8,1663 nmol/min/ml plasma
same,Vmax (app),PON1 in plasma; plasma individual 8,21.31 nmol/min/mg plasma protein
same,Scaled Vmax,PON1 in plasma; plasma individual 8,303506 µmol/h
same,CE,PON1 in plasma; plasma individual 9,7.6 ml/min/ml plasma
same,Scaled CE,PON1 in plasma; plasma individual 9,1391.7 L/h
same,Vmax,PON1 in plasma; plasma individual 9,2157 nmol/min/ml plasma
same,Vmax (app),PON1 in plasma; plasma individual 9,27.46 nmol/min/mg plasma protein
same,Scaled Vmax,PON1 in plasma; plasma individual 9,393583 µmol/h
same,CE,PON1 in plasma; plasma individual 10,9.2 ml/min/ml plasma
same,Scaled CE,PON1 in plasma; plasma individual 10,1671.6 L/h
same,Vmax,PON1 in plasma; plasma individual 10,2370 nmol/min/ml plasma
same,Vmax (app),PON1 in plasma; plasma individual 10,28.9 nmol/min/mg plasma protein
same,CE,PON1 in plasma; plasma individual 11,6.4 ml/min/ml plasma
same,Scaled CE,PON1 in plasma; plasma individual 11,1168.7 L/h
same,Vmax,PON1 in plasma; plasma individual 11,1314 nmol/min/ml plasma
same,Vmax (app),PON1 in plasma; plasma individual 11,17.42 nmol/min/mg plasma protein
same,Scaled Vmax,PON1 in plasma; plasma individual 11,239710 µmol/h
same,CE,PON1 in plasma; plasma individual 12,8.2 ml/min/ml plasma
same,Scaled CE,PON1 in plasma; plasma individual 12,1500.5 L/h
same,Vmax,PON1 in plasma; plasma individual 12,2461 nmol/min/ml plasma
same,Vmax (app),PON1 in plasma; plasma individual 12,26.75 nmol/min/mg plasma protein
same,Scaled Vmax,PON1 in plasma; plasma individual 12,449105 µmol/h
same,CE,PON1 in plasma; plasma individual 13,6.6 ml/min/ml plasma
same,Scaled CE,PON1 in plasma; plasma individual 13,1211.5 L/h
same,Vmax,PON1 in plasma; plasma individual 13,1498 nmol/min/ml plasma
same,Vmax (app),PON1 in plasma; plasma individual 13,20.58 nmol/min/mg plasma protein
same,Scaled Vmax,PON1 in plasma; plasma individual 13,273437 µmol/h
same,CE,PON1 in plasma; plasma individual 14,5.8 ml/min/ml plasma
same,Scaled CE,PON1 in plasma; plasma individual 14,1053.7 L/h
same,Vmax,PON1 in plasma; plasma individual 14,2064 nmol/min/ml plasma
same,Vmax (app),PON1 in plasma; plasma individual 14,28.36 nmol/min/mg plasma protein
same,Scaled Vmax,PON1 in plasma; plasma individual 14,376692 µmol/h
same,CE,PON1 in plasma; plasma individual 15,9.8 ml/min/ml plasma
same,Scaled CE,PON1 in plasma; plasma individual 15,1793.2 L/h
same,Vmax,PON1 in plasma; plasma individual 15,1840 nmol/min/ml plasma
same,Vmax (app),PON1 in plasma; plasma individual 15,24.79 nmol/min/mg plasma protein
same,Scaled Vmax,PON1 in plasma; plasma individual 15,335867 µmol/h
same,CE,PON1 in plasma; plasma individual 16,3.7 ml/min/ml plasma
same,Scaled CE,PON1 in plasma; plasma individual 16,671.6 L/h
same,Vmax,PON1 in plasma; plasma individual 16,912 nmol/min/ml plasma
same,Vmax (app),PON1 in plasma; plasma individual 16,11.28 nmol/min/mg plasma protein
same,Scaled Vmax,PON1 in plasma; plasma individual 16,166366 µmol/h
same,CE,PON1 in plasma; plasma individual 17,8.1 ml/min/ml plasma
same,Scaled CE,PON1 in plasma; plasma individual 17,1480.1 L/h
same,Vmax,PON1 in plasma; plasma individual 17,2287 nmol/min/ml plasma
same,Vmax (app),PON1 in plasma; plasma individual 17,32.03 nmol/min/mg plasma protein
same,Scaled Vmax,PON1 in plasma; plasma individual 17,417377 µmol/h
same,CE,PON1 in plasma; plasma individual 18,5.6 ml/min/ml plasma
same,Scaled CE,PON1 in plasma; plasma individual 18,1029.2 L/h
same,Vmax,PON1 in plasma; plasma individual 18,1132 nmol/min/ml plasma
same,Vmax (app),PON1 in plasma; plasma individual 18,15.18 nmol/min/mg plasma protein
same,Scaled Vmax,PON1 in plasma; plasma individual 18,206569 µmol/h
same,CE,PON1 in plasma; plasma individual 19 (48),5.3 ml/min/ml plasma
same,Scaled CE,PON1 in plasma; plasma individual 19 (48),971.2 L/h
same,Vmax,PON1 in plasma; plasma individual 19 (48),1329 nmol/min/ml plasma
same,Vmax (app),PON1 in plasma; plasma individual 19 (48),18.21 nmol/min/mg plasma protein
same,Scaled Vmax,PON1 in plasma; plasma individual 19 (48),242612 µmol/h
same,CE,PON1 in plasma; plasma individual 20 (49),6.9 ml/min/ml plasma
same,Scaled CE,PON1 in plasma; plasma individual 20 (49),1252.4 L/h
same,Vmax,PON1 in plasma; plasma individual 20 (49),2111 nmol/min/ml plasma
same,Vmax (app),PON1 in plasma; plasma individual 20 (49),24.85 nmol/min/mg plasma protein
same,Scaled Vmax,PON1 in plasma; plasma individual 20 (49),385226 µmol/h
same,CE,PON1 in plasma; plasma individual 21 (44),6.5 ml/min/ml plasma
same,Scaled CE,PON1 in plasma; plasma individual 21 (44),1181.9 L/h
same,Vmax,PON1 in plasma; plasma individual 21 (44),1835 nmol/min/ml plasma
same,Vmax (app),PON1 in plasma; plasma individual 21 (44),23.05 nmol/min/mg plasma protein
same,Scaled Vmax,PON1 in plasma; plasma individual 21 (44),334943 µmol/h
same,CE,PON1 in plasma; plasma individual 22 (34),7.3 ml/min/ml plasma
same,Scaled CE,PON1 in plasma; plasma individual 22 (34),1325.9 L/h
same,Vmax,PON1 in plasma; plasma individual 22 (34),1726 nmol/min/ml plasma
same,Vmax (app),PON1 in plasma; plasma individual 22 (34),24.05 nmol/min/mg plasma protein
same,Scaled Vmax,PON1 in plasma; plasma individual 22 (34),315041 µmol/h
same,CE,PON1 in plasma; plasma individual 23 (47),5.7 ml/min/ml plasma
same,Scaled CE,PON1 in plasma; plasma individual 23 (47),1044.7 L/h
same,Vmax,PON1 in plasma; plasma individual 23 (47),2141 nmol/min/ml plasma
same,Vmax (app),PON1 in plasma; plasma individual 23 (47),24.05 nmol/min/mg plasma protein
same,Scaled Vmax,PON1 in plasma; plasma individual 23 (47),390628 µmol/h
same,CE,PON1 in plasma; plasma individual 24 (28),8.7 ml/min/ml plasma
same,Scaled CE,PON1 in plasma; plasma individual 24 (28),1595.0 L/h
same,Vmax,PON1 in plasma; plasma individual 24 (28),2357 nmol/min/ml plasma
same,Vmax (app),PON1 in plasma; plasma individual 24 (28),28.44 nmol/min/mg plasma protein
same,Scaled Vmax,PON1 in plasma; plasma individual 24 (28),430169 µmol/h
same,CE,PON1 in plasma; plasma individual 25 (41),7.1 ml/min/ml plasma
same,Scaled CE,PON1 in plasma; plasma individual 25 (41),1293.4 L/h
same,Vmax,PON1 in plasma; plasma individual 25 (41),1676 nmol/min/ml plasma
same,Vmax (app),PON1 in plasma; plasma individual 25 (41),22.13 nmol/min/mg plasma protein
same,Scaled Vmax,PON1 in plasma; plasma individual 25 (41),305884 µmol/h
same,Vmax (mean),"PON1 in plasma; Pathway 4 (CPO to TCPy in plasma), mean of 25 individual HP samples",1844 nmol/min/ml plasma and 1844.000^i nmol/min/ml plasma
same,Km,[2],628 µM
same,Vmax,[2],37.980 ^e nmol/min/mg microsomal protein
